pIC50: −log10 of the molar value. Read-outs that look alike come from different tables or passages of the source.
Experiments:
HCT116 cells [1] = test: viability-based synergy experiment, C1368 and cetuximab, HCT116 cells; format: cell-based, human
HCT116 cells [2] = test: viability-based synergy experiment, C1368 and erlotinib, HCT116 cells; format: cell-based, human; conditions: for fold decrease of IC50 value, combination vs drug alone: C1368:erlotinib 1:25 ratio
Source text: (§1) ED refers to the percentage of cell killed at different drug doses.

DLD1 cells = test: viability-based synergy experiment, C1368 and erlotinib, DLD1 cells; format: cell-based
Source text: as §1

HCT116 cells [3] = test: cell cycle analysis of erlotinib-treated HCT116 cells; format: cell-based, human
Source text: Inhibition of Aurora kinase activity is associated with cell cycle arrest.

O=C(Nc1cccc(Nc2nccc(Nc3cccc(C(F)(F)F)c3)n2)c1)C1CC1 [C1368]
pIC50 (HCT116 cells [1]; cetuximab with C1368, 1:109 ratio, read-out: IC50 value in combination): 6.00
pIC50 (HCT116 cells [1]; read-out: IC50 value, drug alone (cetuximab experiment), drug alone): 5.68
fold decrease of IC50 value, combination vs drug alone (HCT116 cells [2]; HCT116 cells): > 4 fold
pIC50 (HCT116 cells [2]; HCT116 cells, combination of C1368 and erlotinib, 1:25 ratio, read-out: IC50 value in combination): 6.30
pIC50 (HCT116 cells [2]; HCT116 cells, treatment with either drug alone, read-out: IC50 value, drug alone): 5.64
pIC50 (DLD1 cells; DLD1 cells, combination treatment with C1368 and erlotinib, read-out: IC50 in combination): 6.30
pIC50 (DLD1 cells; DLD1 cells, single agent, read-out: IC50, single agent): 5.57

C#Cc1cccc(Nc2ncnc3cc(OCCOC)c(OCCOC)cc23)c1 [erlotinib]
concentration at which there was a reduction in cell number suggesting cell death (HCT116 cells [3]): > 50 µM
induction of cell cycle arrest (HCT116 cells [3]): did not noticeably induce cell cycle arrest
fold decrease of IC50 value, combination vs drug alone (HCT116 cells [2]; HCT116 cells): > 3 fold
pIC50 (HCT116 cells [2]; Homo sapiens, HCT-116, read-out: IC50 value in combination): 4.91
pIC50 (HCT116 cells [2]; Homo sapiens, HCT-116, HCT116 cells, treatment with either drug alone, read-out: IC50 value, drug alone): 4.43
pIC50 (DLD1 cells; Homo sapiens, DLD-1, read-out: IC50 in combination): 4.86
pIC50 (DLD1 cells; Homo sapiens, DLD-1, DLD1 cells, single agent, read-out: IC50, single agent): 4.14

— patent US20110033461A1, “Combination Therapy for the Treatment of Cancer” (priority 2008, published 2011)
